Measurements taken from patent US20100216779A1 (GLAXOSMITHKLINE LLC, priority 2007, published 2010).

Assays:
Type in all cases: cell-based
COLO205 (colon) = assay: Inhibition of cell proliferation, CellTiter-Glo, COLO205; details: Homo sapiens, COLO 205, 72 h
How it was run: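 Exponentially growing COLO205 cells in medium with 10% FBS were plated below 2000 cells/well at 37 °C, 5% CO2. Untreated wells served as controls.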

[1] = target: T1, human IGF-1R (NIH-3T3 cells over expressing human IGF-1R) (Homo sapiens, UniProt P08069); assay: IGF-1R cellular autophosphorylation (DELFIA); details: IGF-1 stimulated
T1 construct: expressed in transfected cells; host or cells: NIH-3T3 (mouse fibroblasts)
How it was run: (§1)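 Read-out: DELFIA on lysates, receptor-specific capture antibody plus europium-labelled anti-phosphotyrosine, reported as % of IGF-1- or insulin-stimulated signal. Transfected NIH-3T3 cells got compound (30 uM–1.5 nM, 2 h) before a 15 min ligand pulse: IGF-1 30 ng/mL for IGF-1R, insulin 3 ug/mL for IR.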

[2] = target: T2, IR (NIH-3T3 cells over expressing human IGF-1R or IR) (Homo sapiens, UniProt P06213); assay: IR cellular autophosphorylation (DELFIA); details: NIH-3T3 cells over expressing IR, insulin stimulated
T2 construct: expressed in transfected cells; host or cells: NIH-3T3 (mouse fibroblasts)
How it was run: as §1

[3] = tested on: NCI-H929 (multiple myeloma); assay: Inhibition of cell proliferation, CellTiter-Glo, NCI-H929; details: Homo sapiens, 72 h
How it was run: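 Cells were grown in medium with 10% FBS at 37° C, 5% CO2. Cell number was read as CellTiter-Glo luminescence (cellular ATP), with untreated wells as control.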

T1 sequence (P08069 31-1367): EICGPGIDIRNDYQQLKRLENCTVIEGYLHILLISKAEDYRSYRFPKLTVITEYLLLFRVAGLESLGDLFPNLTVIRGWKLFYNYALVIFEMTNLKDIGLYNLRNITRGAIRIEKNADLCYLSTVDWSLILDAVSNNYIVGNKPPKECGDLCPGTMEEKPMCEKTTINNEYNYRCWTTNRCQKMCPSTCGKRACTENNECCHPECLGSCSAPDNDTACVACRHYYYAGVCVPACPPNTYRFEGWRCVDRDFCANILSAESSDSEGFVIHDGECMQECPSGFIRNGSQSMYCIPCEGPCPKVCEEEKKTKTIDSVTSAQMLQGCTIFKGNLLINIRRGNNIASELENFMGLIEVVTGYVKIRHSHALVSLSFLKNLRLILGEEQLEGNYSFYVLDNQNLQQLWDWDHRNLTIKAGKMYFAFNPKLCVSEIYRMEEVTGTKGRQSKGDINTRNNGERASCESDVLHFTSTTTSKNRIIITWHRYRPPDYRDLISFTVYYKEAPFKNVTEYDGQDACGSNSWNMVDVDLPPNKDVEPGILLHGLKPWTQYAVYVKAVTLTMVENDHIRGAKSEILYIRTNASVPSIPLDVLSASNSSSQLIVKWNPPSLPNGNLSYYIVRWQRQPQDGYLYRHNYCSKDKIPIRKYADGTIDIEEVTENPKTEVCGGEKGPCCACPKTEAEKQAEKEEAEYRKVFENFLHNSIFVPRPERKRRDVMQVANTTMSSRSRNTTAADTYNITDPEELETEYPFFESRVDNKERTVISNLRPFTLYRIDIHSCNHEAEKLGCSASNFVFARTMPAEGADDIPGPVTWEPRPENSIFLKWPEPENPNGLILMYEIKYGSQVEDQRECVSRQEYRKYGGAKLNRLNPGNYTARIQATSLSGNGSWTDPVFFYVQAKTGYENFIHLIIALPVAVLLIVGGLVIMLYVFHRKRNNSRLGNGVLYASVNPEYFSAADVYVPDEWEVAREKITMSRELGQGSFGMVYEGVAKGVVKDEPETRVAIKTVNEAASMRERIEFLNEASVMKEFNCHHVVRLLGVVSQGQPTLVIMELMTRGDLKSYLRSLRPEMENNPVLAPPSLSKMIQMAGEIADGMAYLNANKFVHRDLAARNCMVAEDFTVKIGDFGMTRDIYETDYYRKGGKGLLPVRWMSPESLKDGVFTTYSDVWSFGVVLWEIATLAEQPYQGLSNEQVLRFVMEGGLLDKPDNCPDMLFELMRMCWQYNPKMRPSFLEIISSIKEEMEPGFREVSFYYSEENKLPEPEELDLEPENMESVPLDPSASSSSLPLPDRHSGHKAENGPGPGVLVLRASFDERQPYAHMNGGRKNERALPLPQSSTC
T2 sequence (P06213 28-1382): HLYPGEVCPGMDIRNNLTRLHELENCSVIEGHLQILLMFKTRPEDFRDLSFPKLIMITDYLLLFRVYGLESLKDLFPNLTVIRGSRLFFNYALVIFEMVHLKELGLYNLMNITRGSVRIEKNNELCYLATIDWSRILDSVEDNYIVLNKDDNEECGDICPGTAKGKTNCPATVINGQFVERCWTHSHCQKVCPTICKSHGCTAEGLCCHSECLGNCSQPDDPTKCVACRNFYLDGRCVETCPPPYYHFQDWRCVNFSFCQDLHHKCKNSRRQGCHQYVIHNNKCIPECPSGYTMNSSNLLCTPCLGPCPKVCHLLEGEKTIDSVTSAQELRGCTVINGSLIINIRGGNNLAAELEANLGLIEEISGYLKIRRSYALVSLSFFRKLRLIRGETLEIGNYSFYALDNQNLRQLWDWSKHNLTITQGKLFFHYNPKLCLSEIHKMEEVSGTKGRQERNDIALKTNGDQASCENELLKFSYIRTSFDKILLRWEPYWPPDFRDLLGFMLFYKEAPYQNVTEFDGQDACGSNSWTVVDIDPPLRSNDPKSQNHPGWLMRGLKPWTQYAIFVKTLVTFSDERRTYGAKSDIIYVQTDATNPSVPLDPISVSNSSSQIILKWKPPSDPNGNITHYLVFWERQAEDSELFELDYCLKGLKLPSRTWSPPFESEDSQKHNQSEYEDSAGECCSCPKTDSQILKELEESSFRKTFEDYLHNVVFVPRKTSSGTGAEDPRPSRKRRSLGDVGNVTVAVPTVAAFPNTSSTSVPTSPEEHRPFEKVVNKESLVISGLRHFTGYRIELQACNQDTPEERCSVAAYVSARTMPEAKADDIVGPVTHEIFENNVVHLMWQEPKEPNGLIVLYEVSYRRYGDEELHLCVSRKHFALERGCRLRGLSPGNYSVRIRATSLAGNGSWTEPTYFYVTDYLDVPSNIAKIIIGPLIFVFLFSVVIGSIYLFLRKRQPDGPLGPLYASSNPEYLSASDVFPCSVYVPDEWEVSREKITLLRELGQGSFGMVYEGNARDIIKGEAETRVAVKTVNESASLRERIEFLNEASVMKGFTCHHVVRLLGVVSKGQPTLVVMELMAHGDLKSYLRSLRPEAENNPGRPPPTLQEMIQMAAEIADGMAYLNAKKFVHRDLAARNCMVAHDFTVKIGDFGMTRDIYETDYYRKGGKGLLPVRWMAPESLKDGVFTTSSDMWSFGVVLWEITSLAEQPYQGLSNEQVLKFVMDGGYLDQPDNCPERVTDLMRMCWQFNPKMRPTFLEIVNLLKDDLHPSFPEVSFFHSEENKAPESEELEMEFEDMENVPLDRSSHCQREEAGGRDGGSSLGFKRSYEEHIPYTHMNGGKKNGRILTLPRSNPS

Row | SMILES | IC50 (COLO205 (colon)) [nM] | IC50 [1] [nM] | IC50 [2] [nM] | IC50 [3] [nM]
1 | COc1cc(C2CCN(C3CCN(CCF)CC3)CC2)ccc1Nc1nccc(-c2c(-c3cccc(C(=O)Nc4c(F)cccc4F)c3)nc3ccccn23)n1 [Example 100] | 250 to 1000 | < 100 | < 100 | 250 to 1000
2 | COc1cc(N2CCC(N3CCN(CCF)CC3)CC2)c(OC)cc1Nc1nccc(-c2c(-c3cccc(C(=O)Nc4c(F)cccc4F)c3)nc3ccccn23)n1 [Example 111, N-(2,6-difluorophenyl)-3-[3-(2-{[4-{4-[4-(2-fluoroethyl)-1-piperazinyl]-1-piperidinyl}-2,5-bis(methyloxy)phenyl]amino}-4-pyrimidinyl)imidazo[1,2-a]pyridin-2-yl]benzamide] | 250 to 1000 | < 100 | < 100 | < 250
3 | COc1cc(N2CCC(N3CCN(CCF)CC3)CC2)c(C)cc1Nc1nccc(-c2c(-c3cccc(C(=O)Nc4c(F)cccc4F)c3)nc3ccccn23)n1 [Example 113, N-(2,6-difluorophenyl)-3-[3-(2-{[4-{4-[4-(2-fluoroethyl)-1-piperazinyl]-1-piperidinyl}-5-methyl-2-(methyloxy)phenyl]amino]-4-pyrimidinyl)imidazo[1,2-a]pyridin-2-yl]benzamide] | > 1000 | < 100 | < 100 | 250 to 1000
4 | CCOc1cc(N2CCC(N3CCN(CCF)CC3)CC2)ccc1Nc1nccc(-c2c(-c3cccc(C(=O)Nc4c(F)cccc4F)c3)nc3ccccn23)n1 [Example 116, N-(2,6-difluorophenyl)-3-(3-{2-[(2-(ethyloxy)-4-{4-[4-(2-fluoroethyl)-1-piperazinyl]-1-piperidinyl}phenyl)amino]-4-pyrimidinyl}imidazo[1,2-a]pyridin-2-yl)benzamide] | 250 to 1000 | < 100 | < 100 | 250 to 1000
5 | CCOc1cc(N2CCC(N3CCN(CC(F)F)CC3)CC2)ccc1Nc1nccc(-c2c(-c3cccc(C(=O)Nc4c(F)cccc4F)c3)nc3ccccn23)n1 [Example 117, 3-[3-(2-{[4-{4-[4-(2,2-difluoroethyl)-1-piperazinyl]-1-piperidinyl}-2-(ethyloxy)phenyl]-amino}-4-pyrimidinyl)imidazo[1,2-a]pyridin-2-yl]-N-(2,6-difluorophenyl)benzamide] | > 1000 | < 100 | < 100 | 250 to 1000
6 | COc1cc(N2CCC(N3CCN(CCF)C(=O)C3)CC2)ccc1Nc1nccc(-c2c(-c3cccc(C(=O)Nc4c(F)cccc4F)c3)nc3ccccn23)n1 [Example 121, N-(2,6-difluorophenyl)-3-[3-(2-{[4-{4-[4-(2-fluoroethyl)-3-oxo-1-piperazinyl]-1-piperidinyl}-2-(methyloxy)phenyl]amino]-4-pyrimidinyl)imidazo[1,2-a]pyridin-2-yl]benzamide] | 250 to 1000 | < 100 | < 100 | < 250
7 | COc1cc(N2CCN3CCOC[C@@H]3C2)ccc1Nc1nccc(-c2c(-c3cccc(C(=O)Nc4c(F)cccc4F)c3)nc3ccccn23)n1 [Example 123] | 250 to 1000 | 100 to 500 | < 100 | 250 to 1000
8 | COc1cc(N2CCN3CCOC[C@@H]3C2)ccc1Nc1nccc(-c2c(-c3ccc(OC)c(C(=O)Nc4c(F)cccc4F)c3)nc3ccccn23)n1 [Example 124, N-(2,6-difluorophenyl)-5-[3-(2-{[4-[(9aS)-hexahydropyrazino[2,1-c][1,4]oxazin-8(1H)-yl]-2-(methyloxy)phenyl]amino}-4-pyrimidinyl)imidazo[1,2-a]pyridin-2-yl]-2-(methyloxy)-benzamide] | > 1000 | < 100 | < 100 | < 250
9 | CCCN1CCC(c2ccc(Nc3nccc(-c4c(-c5ccc(OC)c(C(=O)Nc6c(F)cccc6F)c5)nc5ccccn45)n3)c(OC)c2)CC1 [Example 137, N-(2,6-difluorophenyl)-2-(methyloxy)-5-[3-(2-{[2-(methyloxy)-4-(1-propyl-4-piperidinyl)phenyl]amino}-4-pyrimidinyl)imidazo[1,2-a]pyridin-2-yl]benzamide] | 250 to 1000 | < 100 | < 100 | < 250

More lines, now with the values ahead:

Row | IC50 (COLO205 (colon)) [nM] | IC50 [1] [nM] | IC50 [2] [nM] | IC50 [3] [nM] | SMILES
10 | < 250 | < 100 | < 100 | < 250 | COc1cc(C2CCN(C3CCN(CCS(C)(=O)=O)CC3)CC2)ccc1Nc1nccc(-c2c(-c3cccc(C(=O)Nc4c(F)cccc4F)c3)nc3ccccn23)n1 [Example 99, N-(2,6-difluorophenyl)-3-(3-{2-[(2-(methyloxy)-4-{1′-[2-(methylsulfonyl)ethyl]-1,4′-bipiperidin-4-yl}phenyl)amino]-4-pyrimidinyl}imidazo[1,2-a]pyridin-2-yl)benzamide]
11 | 250 to 1000 | < 100 | < 100 | < 250 | COc1cc(N2CCC(N3CCC(CCS(C)(=O)=O)CC3)CC2)ccc1Nc1nccc(-c2c(-c3cccc(C(=O)Nc4c(F)cccc4F)c3)nc3ccccn23)n1 [Example 101, N-(2,6-difluorophenyl)-3-(3-{2-[(2-(methyloxy)-4-{4-[2-(methylsulfonyl)ethyl)-1,4′-bipiperidin-1′-yl]phenyl)amino]-4-pyrimidinyl}imidazo[1,2-a]pyridin-2-yl)benzamide]
12 | 250 to 1000 | < 100 | < 100 | < 250 | COc1cc(N2CCC(N3CCC(CCS(C)(=O)=O)CC3)CC2)ccc1Nc1nccc(-c2c(-c3ccc(OC)c(C(=O)Nc4c(F)cccc4F)c3)nc3ccccn23)n1 [Example 102, N-(2,6-difluorophenyl)-2-(methyloxy)-5-(3-{2-[(2-(methyloxy)-4-{4-[2-(methylsulfonyl)ethyl]-1,4′-bipiperidin-1′-yl}phenyl)amino]-4-pyrimidinyl}imidazo[1,2-a]pyridin-2-yl)benzamide]
13 | 250 to 1000 | < 100 | < 100 | < 250 | CCOc1ccc(-c2nc3ccccn3c2-c2ccnc(Nc3ccc(N4CCC(N5CCC(CCS(C)(=O)=O)CC5)CC4)cc3OC)n2)cc1C(=O)Nc1c(F)cccc1F [Example 103, N-(2,6-difluorophenyl)-2-(ethyloxy)-5-(3-{2-[(2-(methyloxy)-4-{4-[2-(methylsulfonyl)ethyl]-1,4′-bipiperidin-1′-yl}phenyl)amino]-4-pyrimidinyl}imidazo[1,2-a]pyridin-2-yl)benzamide]
14 | 250 to 1000 | < 100 | < 100 | < 250 | COc1cc(N2CCC(N3CCCCC3)CC2)c(OC)cc1Nc1nccc(-c2c(-c3cccc(C(=O)Nc4c(F)cccc4F)c3)nc3ccccn23)n1 [Example 110, 3-[3-(2-{[4-(1,4′-bipiperidin-1′-yl)-2,5-bis(methyloxy)phenyl]amino}-4-pyrimidinyl)imidazo[1,2-a]pyridin-2-yl]-N-(2,6-difluorophenyl)benzamide]
15 | 250 to 1000 | < 100 | < 100 | < 250 | COc1cc(N2CCC(N3CCN(CCS(C)(=O)=O)CC3)CC2)c(Cl)cc1Nc1nccc(-c2c(-c3cccc(C(=O)Nc4c(F)cccc4F)c3)nc3ccccn23)n1 [Example 114, 3-[3-(2-{[5-chloro-2-(methyloxy)-4-(4-{4-[2-(methylsulfonyl)ethyl]-1-piperazinyl}-1-piperidinyl)phenyl]amino}-4-pyrimidinyl)imidazo[1,2-a]pyridin-2-yl]-N-(2,6-difluorophenyl)-benzamide]
16 | 250 to 1000 | 100 to 500 | 100 to 500 | 250 to 1000 | CCOc1cc(N2CCC(N3CCN(CCC(F)(F)F)CC3)CC2)ccc1Nc1nccc(-c2c(-c3cccc(C(=O)Nc4c(F)cccc4F)c3)nc3ccccn23)n1 [Example 118, N-(2,6-difluorophenyl)-3-(3-{2-[(2-(ethyloxy)-4-{4-[4-(3,3,3-trifluoropropyl)-1-piperazinyl]-1-piperidinyl}phenyl)amino]-4-pyrimidinyl}imidazo[1,2-a]pyridin-2-yl)benzamide]
17 | 250 to 1000 | < 100 | < 100 | < 250 | CCOc1cc(N2CCC(N3CCN(CCS(C)(=O)=O)CC3)CC2)ccc1Nc1nccc(-c2c(-c3cccc(C(=O)Nc4c(F)cccc4F)c3)nc3ccccn23)n1 [Example 119, N-(2,6-difluorophenyl)-3-[3-(2-{[2-(ethyloxy)-4-(4-{4-[2-(methylsulfonyl)ethyl]-1-piperazin-yl]-1-piperidinyl)phenyl]amino}-4-pyrimidinyl)imidazo[1,2-a]pyridin-2-yl]benzamide]
18 | 250 to 1000 | < 100 | < 100 | < 250 | CS(=O)(=O)CCN1CCN(C2CCN(c3ccc(Nc4nccc(-c5c(-c6cccc(C(=O)Nc7c(F)cccc7F)c6)nc6ccccn56)n4)c(OCC(F)(F)F)c3)CC2)CC1 [Example 120, N-(2,6-difluorophenyl)-3-{3-[2-({4-(4-{4-[2-(methylsulfonyl)ethyl]-1-piperazinyl}-1-piperidinyl)-2-[(2,2,2-trifluoroethyl)oxy]phenyl}amino)-4-pyrimidinyl]imidazo[1,2-a]pyridin-2-yl}benzamide]
